Data published in ChEMBL document CHEMBL3244078, “Synthesis and antihypertensive activity of novel 3-hydrazino-5-phenyl-1,2,4-triazines” (J Med Chem, 1979).
Activity calls are given as the source filed them. The rule behind the calls is not given here.

Assays:
Rattus norvegicus [1] = assay: Antihypertensive activity in spontaneously hypertensive rat assessed as drop in mean systolic blood pressure at 100 mg/kg, po followed by second dosing at 24 hrs measured after 28 hrs by tail cuff method relative to vehicle-treated control; assay type: functional, Artery
[2] = Toxicity in ip dosed CF-1 mouse after 48 hrs; details: in vivo
Rattus norvegicus [3] = assay: Antihypertensive activity in spontaneously hypertensive rat assessed as drop in mean systolic blood pressure at 100 mg/kg, po after 24 hrs by tail cuff method relative to vehicle-treated control; assay type: functional, Artery
Rattus norvegicus [4] = assay: Antihypertensive activity in spontaneously hypertensive rat assessed as drop in mean systolic blood pressure at 100 mg/kg, po followed by second dosing at 24 hrs measured after 48 hrs by tail cuff method relative to vehicle-treated control; assay type: functional, Artery
Rattus norvegicus [5] = assay: Antihypertensive activity in spontaneously hypertensive rat assessed as drop in mean systolic blood pressure at 100 mg/kg, po after 4 hrs by tail cuff method relative to vehicle-treated control; assay type: functional, Artery

SMILES | Activity (Rattus norvegicus [1]) [mmHg] | LD50 at 48 h [2] [mg/kg] | Activity (Rattus norvegicus [3]) [mmHg] | Activity (Rattus norvegicus [4]) [mmHg] | Activity (Rattus norvegicus [5]) [mmHg] | Activity (Rattus norvegicus [1]; Artery) | Activity (Rattus norvegicus [3]; Artery) | Activity (Rattus norvegicus [4]; Artery) | Activity (Rattus norvegicus [5]; Artery)
CNNc1nncc(-c2ccc(Cl)cc2)n1 | 39 | 316 | 12 | 53 | 0 |  |  |  | 
Br.CC(N)C(=O)NNc1nncc(-c2ccc(Cl)cc2)n1.O (stereo unspecified) | 91 | 237 | 58 | 103 | 44 |  |  |  | 
NNc1nncc(-c2ccc(Cl)c(Cl)c2)n1 |  | > 300 |  |  |  | inactive | inactive | inactive | inactive
Br.CC(N)C(=O)NNc1nncc(-c2cccc(Cl)c2)n1.O (stereo unspecified) |  | 178 |  |  |  | inactive | inactive | inactive | inactive
O=C(NNc1nncc(-c2ccc(Cl)cc2)n1)C(F)(F)F | 92 | 237 | 46 | 74 | 30 |  |  |  | 
Cl.O=C(Cc1ccccc1)NNc1nncc(-c2ccccc2)n1 |  | 237 |  |  |  | inactive | inactive | inactive | inactive
O=C(NNc1nncc(-c2ccccc2)n1)c1ccccc1 |  | > 300 |  |  |  | inactive | inactive | inactive | inactive
CCCCCC(=O)NNc1nncc(-c2ccccc2)n1.Cl | 81 | 178 | 53 | 68 | 53 |  |  |  | 
CNNc1nncc(-c2cccc(Cl)c2)n1 | 63 | 237 | 35 | 51 | 28 |  |  |  | 
CC(=O)NNc1nncc(-c2ccc(Cl)c(Cl)c2)n1 |  | 237 |  |  |  | inactive | inactive | inactive | inactive
O=C(CCCCl)NNc1nncc(-c2ccc(Cl)cc2)n1 | 48 | 237 | 25 | 73 | 0 |  |  |  | 
CC(=O)NNc1nncc(-c2ccccc2)n1 | 106 | 178 | 94 | 104 | 40 |  |  |  | 
COc1ccc(-c2cnnc(NNC(C)=O)n2)cc1 |  | 237 |  |  |  | inactive | inactive | inactive | inactive
O=C(NNc1nncc(-c2ccccc2)n1)C(Cl)Cl | 106 | 178 | 54 | 80 | 33 |  |  |  | 
Br.NC(Cc1ccccc1)C(=O)NNc1nncc(-c2ccccc2)n1.O (stereo unspecified) | 75 | 178 | 38 | 82 | 26 |  |  |  | 
Cc1ccc(-c2cnnc(NN)n2)cc1.O | 75 | 224 | 28 | 38 | 62 |  |  |  | 
O=C(NNc1nncc(-c2ccccc2)n1)C(F)(F)F | 70 | 178 | 29 | 88 | 51 |  |  |  | 
Cl.O=C(NNc1nncc(-c2ccc(Cl)cc2)n1)C(Cl)(Cl)Cl |  | 237 |  |  |  | inactive | inactive | inactive | inactive

SMILES | Activity (Rattus norvegicus [1]) [mmHg] | LD50 at 48 h [2] [mg/kg] | Activity (Rattus norvegicus [3]) [mmHg] | Activity (Rattus norvegicus [4]) [mmHg] | Activity (Rattus norvegicus [5]) [mmHg] | Activity (Rattus norvegicus [1]; Artery) | Activity (Rattus norvegicus [3]; Artery) | Activity (Rattus norvegicus [4]; Artery) | Activity (Rattus norvegicus [5]; Artery)
O=C(CCCl)NNc1nncc(-c2ccc(Cl)cc2)n1 |  | 237 |  |  |  | inactive | inactive | inactive | inactive
Cc1ccc(-c2cnnc(NNC(=O)C34CC5CC(CC(C5)C3)C4)n2)cc1.Cl | 24 | 216 | 0 | 30 | 32 |  |  |  | 
Br.CC(C)C(N)C(=O)NNc1nncc(-c2ccc(Cl)cc2)n1.O (stereo unspecified) |  | 178 |  |  |  |  |  |  | 
NNc1nncc(-c2cccc(Cl)c2)n1 | 55 | 237 | 0 | 51 | 0 |  |  |  | 
CCC(=O)NNc1nncc(-c2ccc(Cl)cc2)n1 | 107 | 237 | 79 | 111 | 47 |  |  |  | 
Cc1ccc(-c2cnnc(NNC(=O)C(F)(F)F)n2)cc1 |  | > 300 |  |  |  | inactive | inactive | inactive | inactive
Cc1ccc(-c2cnnc(NNC(=O)Cc3ccccc3)n2)cc1 |  | 237 |  |  |  | inactive | inactive | inactive | inactive
CC(C)C(=O)NNc1nncc(-c2ccccc2)n1.Cl | 98 | 178 | 46 | 83 | 44 |  |  |  | 
CC(=O)NNc1nncc(-c2ccc(C)cc2)n1.O |  | > 300 |  |  |  | inactive | inactive | inactive | inactive
NNc1nncc(-c2cccc(C(F)(F)F)c2)n1 | 48 | 316 | 0 | 40 | 26 |  |  |  | 
O=C(NNc1nncc(-c2ccccc2)n1)C1CCCCC1 | 76 | 237 | 51 | 79 | 24 |  |  |  | 
NNc1nncc(-c2ccc(Cl)cc2)n1 | 90 | 237 | 61 | 87 | 52 |  |  |  | 
CNNc1nncc(-c2ccc(C)cc2)n1 |  | 316 |  |  |  | inactive | inactive | inactive | inactive
O=C(CCl)NNc1nncc(-c2ccccc2)n1 | 101 | 100 | 74 | 55 | 63 |  |  |  | 
CNNc1nncc(-c2ccccc2)n1 | 56 | 178 | 49 | 92 | 0 |  |  |  | 
COc1ccc(-c2cnnc(NN)n2)cc1 | 38 | 56 | 26 | 22 | 48 |  |  |  | 
O=C(NNc1nncc(-c2cccc(Cl)c2)n1)C(F)(F)F | 64 | 237 | 0 | 59 | 0 |  |  |  | 
